Laboratory results published in article PMC6749236, “Synthesis of Novel 2-(Het)arylpyrrolidine Derivatives and Evaluation of Their Anticancer and Anti-Biofilm Activity” (Molecules, 2019).

Columns and labels:
[1] = Water solubility (selection for parenteral administration); type: physicochemical
Chang liver cell line = test: Cytotoxicity assay (Cytell Cell Imaging), normal cell line; type: cell-based; details: Homo sapiens, read-out: IC50 Normal Cell Line Chang Liver
M-Hela = test: Cytotoxicity assay (Cytell Cell Imaging, DAPI/propidium iodide), cancer cell line; type: cell-based; details: Homo sapiens, M-HeLa, read-out: IC50 Cancer Cell Line M-Hela
P388 murine leukemia = test: In vivo anti-tumor activity, i.p. implanted leukemia; set-up: species or system BDF1 hybrid male mice; details: for ILS / MST ± SD / antitumor (anti-leukemic) activity, in words: days 1, 5, 9; for ILS / MST ± SD: P388; for Survival: day 60; for Survivors/Total: survivors on day 60; for antitumor (anti-leukemic) activity, in words: P388, dose range 18–83 mg/kg/day i.p.
Experimental: Animals. In vivo experiments were performed using the BDF1 hybrid male mice of 22–24 g weight. The experimental animals were caged in a standard vivarium in 12 h light conditions with free access to food and water. All manipulations with the animals were performed in accordance with the solutions of the Commission on Bioethics of the Institute of Problems of Chemical Physics, Russian Academy of Sciences (IPCP RAS).
Anti-tumor activity. The tumors were transplanted intraperitoneally (i.p.) in accordance with a standard procedure inoculum: 10^6 tumor cells in isotonic solution of NaCl, V = 0.2 cm^3 (leukemia P388). Original compounds were injected intraperitoneally as aqueous solution. Doses from 18 to 83 mg/kg/day and the mode of administration on days 1, 5, and 9 after transplantation were used. In each experiment, a single group of tumor-bearing animals not injected with the compounds served as the control group. Each group consisted of six mice. The animals were observed daily for survival for a minimum of 60 days. The efficacy of the therapy against leukemia (defined as increase in lifespan—ILS) was assessed as the percentage of the median survival time (MST) of the treated group (t) to that of the control group (c): ILS(%) = (MSTt/MSTc) × 100.
Statistics. The experiments were carried out in triplicate. The data are presented in the form X ± SD (mean ± standard deviation). The significance of the differences between the groups was assessed using Student’s t-test. Values of p < 0.05 were considered statistically significant. The data were processed statistically using GraphPad Prism.

M-Hela cells [2] = test: Induction of apoptotic effects (annexin V-Alexa Fluor 647, Cytell); type: cell-based, human; details: 24 hours of treatment, concentration corresponding to the IC50 value (14.7 μM)
Experimental: Induction of Apoptotic Effects by test compounds. Cell Culture. M-Hela cells at 1 × 10^6 cells/well in a final volume of 2 mL were seeded into six-well plates. After 24 hours of incubation, a solution of the test compound 6g was added to the wells at the concentration studied.
Cytell Cell Imaging System Assay. M-Hela cells were plated into a 24-well plate (Eppendorf) at a concentration of 1 × 10^6 cells/mL, 500 µL of medium per well, and cultured in a CO2 incubator at 37 °C. Twenty-four hours after seeding the cells into wells the compound was added at a preset dilution, 500 µL to each well. […] Evaluation of apoptotic effects was performed with the help of multifunctional system Cytell Cell Imaging, using Cell Viability BioApp and Automated Imaging BioApp applications. The annexin V-Alexa Fluor 647 apoptosis detection kit, DAPI and propidium iodide purchased from Sigma.
Statistical analysis. The experiments were repeated three times. The cytometric results were analyzed by the Cytell Cell Imaging multifunctional system using the Cell Viability BioApp and Apoptosis BioApp application. The data in the tables and graphs are given as the mean ± standard error.

[3] = tested on: early apoptosis markers (Caspase-8, Caspase-9) in M-Hela cell lysates; test: Multiplex analysis of early apoptosis markers (MILLIPLEX MAP 7-plex, Luminex); type: cell-based, human; details: 24 h, IC50 concentration of 14.7 µM
Experimental: Multiplex analysis of early apoptosis markers. Next, using the MILLIPLEX® MAP 7-plex Early Phase Apoptosis Signaling kit, seven markers of early apoptosis of JNK, Bad, Bcl-2, Akt, Caspase-9, p53, and Caspase-8 were detected in M-Hela cell lysates. The median fluorescence intensity (MFI) was measured using the Luminex® system. This assay is a quick and convenient alternative to Western blot and immunoprecipitation.
Multiplex analysis of early apoptosis markers. M-Hela cells were incubated for 24 hours with the test substance. Cells were lysed in MILLIPLEX® MAP Lysis buffer containing protease inhibitors. Twenty micrograms of total protein of each lysate diluted in MILLIPLEX® MAP Assay Buffer 2 was analyzed according to the analysis protocol (the lysate was incubated at 4 °C overnight). The mean fluorescence intensity (MFI) was detected using the Luminex® system, MERCK, USA.

M-Hela cells [4] = test: Mitochondrial membrane potential, JC-10 flow cytometry; type: cell-based, human; details: IC50 concentration of 14.7 μM
Experimental: Effects on the mitochondrial membrane potential (Δψm) by lead compounds. In confirmation of data on the course of apoptosis in cells along an external pathway not associated with dysfunctional mitochondria, the ability of the tested compounds to reduce the potential of the mitochondrial membrane (Δψm) in M-Hela culture cells was examined using the example of compound 6g. Studies were performed using flow cytometry methods using JC-10 reagent. In normal cells with a high potential of the mitochondrial membrane, the dye JC-10 forms aggregates (J-aggregate) near the mitochondrial membranes. When the membrane potential due to the stimulation of apoptosis falls, JC-10 is evenly distributed in the cell as a monomer (J-monomer). JC-10 units in normal cells have red fluorescence, and JC-10 monomers are green. The ratio between orange-red and green fluorescence can be used to assess the onset of apoptosis. […] The results obtained indicate that the mechanism of action of the studied compounds is not associated with the induction of apoptosis, which proceeds along the mitochondrial pathway.
Flow Cytometry Assay. Mitochondrial membrane potential. […] After the cells were rinsed three times and suspended in PBS, the JC-10 fluorescence was observed by flow cytometry (Guava easy Cyte 8HT, Guava Technologies Inc., Hayward, CA, USA).

Compound	solubility in water, in words [1]	IC50 (Chang liver cell line)	IC50 (M-Hela)	ILS (P388 murine leukemia; 18 mg/kg/day i.p.)	MST ± SD (P388 murine leukemia; 18 mg/kg/day i.p.)	Survival (P388 murine leukemia; 18 mg/kg/day)	Survivors/Total (P388 murine leukemia; 18 mg/kg/day)	ILS (P388 murine leukemia; 26 mg/kg/day i.p.)	MST ± SD (P388 murine leukemia; 26 mg/kg/day i.p.)	Survival (P388 murine leukemia; 26 mg/kg/day)	Survivors/Total (P388 murine leukemia; 26 mg/kg/day)	ILS (P388 murine leukemia; 40 mg/kg/day i.p.)	MST ± SD (P388 murine leukemia; 40 mg/kg/day i.p.)	Survival (P388 murine leukemia; 40 mg/kg/day)	Survivors/Total (P388 murine leukemia; 40 mg/kg/day)	ILS (P388 murine leukemia; 55 mg/kg/day i.p.)	Survival (P388 murine leukemia; 55 mg/kg/day)	Survivors/Total (P388 murine leukemia; 55 mg/kg/day)	ILS (P388 murine leukemia; 83 mg/kg/day i.p.)	MST ± SD (P388 murine leukemia; 83 mg/kg/day i.p.)	further results
CN(C)CCNC(=O)N1CCCC1c1ccc(Nc2c([N+](=O)[O-])c(Cl)cc3c2no[n+]3[O-])cc1O.O=C(O)C(F)(F)F (stereo not drawn) [6h, 6-Chloro-4-((4-(1-((2-(dimethylammonio)ethyl)carbamoyl)pyrrolidin-2-yl)-3-hydroxyphenyl)amino)-5-nitrobenzo[c][1,2,5]oxadiazole 1-oxide 2,2,2-trifluoroacetate]	water-soluble	> 100 µM	100 ± 8.6 µM	37%	13.8 ± 0.6 days	0%	0/6	34%	13.5 ± 0.5 days	0%	0/6	27%	12.8 ± 0.7 days	0%	0/6	39%	0%	0/6	11%	11.2 ± 1.6 days	Survival (P388 murine leukemia; 83 mg/kg/day): 0%; Survivors/Total (P388 murine leukemia; 83 mg/kg/day): 0/6; antitumor (anti-leukemic) activity, in words (P388 murine leukemia): did not show antitumor properties
CN(C)CCNC(=O)N1CCCC1c1cc2c(cc1O)OCO2.O=C(O)C(F)(F)F (stereo not drawn) [5h, 2-(2-(6-Hydroxybenzo[d][1,3]dioxol-5-yl)pyrrolidine-1-carboxamido)-N,N-dimethylethan-1-aminium 2,2,2-trifluoroacetate]	water-soluble	> 100 µM	> 100 µM	276%	35.7 ± 10.9 days	50%	3/6	95%	18.5 ± 8.3 days	17%	1/6	447%	52.0 ± 8.0 days	83%	5/6	300%	50%	3/6	100%	19.0 ± 8.2 days	MST ± SD (P388 murine leukemia; 55 mg/kg/day i.p.): 38.0 ± 9.9 days; Survival (P388 murine leukemia; 83 mg/kg/day): 17%; Survivors/Total (P388 murine leukemia; 83 mg/kg/day): 1/6; antitumor (anti-leukemic) activity, in words (P388 murine leukemia): pronounced anti-leukemic activity
O=C(NC1CCCCC1)N1CCCC1c1ccc(Nc2c([N+](=O)[O-])c(Cl)cc3c2no[n+]3[O-])cc1O (stereo not drawn) [6g, 6-Chloro-4-((4-(1-(cyclohexylcarbamoyl)pyrrolidin-2-yl)-3-hydroxyphenyl)amino)-5-nitrobenzo[c][1,2,5]oxadiazole 1-oxide]		46 ± 2.7 µM	14.7 ± 0.9 µM																		M-Hela cells in which apoptosis was induced (M-Hela cells [2]): 25%; melting point: 170 to 175 °C (dec.); fluorescence intensity of Caspase-8 versus control [3]: two times higher; fluorescence intensity of Caspase-9 versus control [3]: at the control level; decrease in mitochondrial membrane potential (Δψm) (M-Hela cells [4]): No decrease
Cc1cc(O)c(C2CCCN2C(=O)NCCN(C)C)c(=O)o1.O=C(O)C(F)(F)F (stereo not drawn) [7h, 2-(2-(4-Hydroxy-6-methyl-2-oxo-2H-pyran-3-yl)pyrrolidine-1-carboxamido)-N,N-dimethylethan-1-aminium 2,2,2-trifluoroacetate]	water-soluble	> 100 µM	> 100 µM	0%	11.0 ± 0.6 days	0%	0/6	0%	10.3 ± 0.2 days	0%	0/6	0%	10.2 ± 0.2 days	0%	0/6	0%	0%	0/6	0%	10.3 ± 0.2 days	MST ± SD (P388 murine leukemia; 55 mg/kg/day i.p.): 10.7 ± 0.2 days; Survival (P388 murine leukemia; 83 mg/kg/day): 0%; Survivors/Total (P388 murine leukemia; 83 mg/kg/day): 0/6; antitumor (anti-leukemic) activity, in words (P388 murine leukemia): did not show antitumor properties
